The results in this text go back to patent US20260125382A1, “COMPOUNDS FOR INHIBITING OR DEGRADING CDK2 AND/OR CDK9 AND MEDICINAL USE THEREOF” (KOREA RESEARCH INSTITUTE OF CHEMICAL TECHNOLOGY, priority 2022, published 2026).

One assay deals with T1, CDK9 (Homo sapiens, UniProt P50750).
T1 construct: endogenous in cells; host or cells: MDA-MB-231
In words: CDK protein degradation activity (Western blotting), CDK9. In kind it is cell-based. Conditions: MDA-MB-231 cells, 16 hours, Western blot. Put shortly:
(§1)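 Seed MDA-MB-231 cells; next day add compound to 100 nM, 1 μM or 10 μM final, or DMSO. After 16 h, harvest and lyse in Triton X-100 buffer, run SDS-PAGE, probe for CDK2, CDK9 and tubulin.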

The target of another assay is T2, CDK2 (Homo sapiens, UniProt P24941).
T2 construct: endogenous in cells; host or cells: MDA-MB-231
In words: CDK protein degradation activity (Western blotting), CDK2. In kind it is cell-based. Conditions: MDA-MB-231 cells, 16 hours, Western blot. Summed up:
as §1

T1 sequence (P50750 whole entry): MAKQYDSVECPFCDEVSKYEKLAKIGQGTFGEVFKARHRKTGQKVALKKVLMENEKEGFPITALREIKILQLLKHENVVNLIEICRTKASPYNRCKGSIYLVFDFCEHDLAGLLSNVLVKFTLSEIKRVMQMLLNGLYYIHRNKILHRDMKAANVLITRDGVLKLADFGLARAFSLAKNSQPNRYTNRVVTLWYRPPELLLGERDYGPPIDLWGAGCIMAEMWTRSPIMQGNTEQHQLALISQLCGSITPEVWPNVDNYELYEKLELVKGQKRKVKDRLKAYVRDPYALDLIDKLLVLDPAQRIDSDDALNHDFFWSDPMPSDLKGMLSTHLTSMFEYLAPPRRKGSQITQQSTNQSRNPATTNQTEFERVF

`Cc1cccc(C(=O)NC2CC(n3cnc4c(Nc5ccc(N6CCN(CCC7CCN(C(=O)C8CN(c9ccc%10c(c9)C(=O)N([C@H]9CCC(=O)NC9=O)C%10=O)C8)CC7)CC6)cc5)ncnc43)C2)n1` (stereo partly drawn) [Compound 388, N-((1s,3s)-3-(6-((4-(4-(2-(1-(1-(2-(2,6-dioxopiperidin-3-yl)-1,3-dioxoisoindolin-5-yl)azetidin-3-carbonyl)piperidin-4-yl)ethyl)piperazin-1-yl)phenyl)amino)-9H-purin-9-yl)cyclobutyl)-6-methylpicolinamide]: on CDK9, the “Enzyme degradation CDK9 (% remaining) @ 0.1 μM” value is listed as 0/0/0%, the “Enzyme degradation CDK9 (% remaining) @ 1 μM” value is recorded as 0/0/0% and the “Enzyme degradation CDK9 (% remaining) @ 10 μM” value is given as 0/0/0%. At CDK2, the “Enzyme degradation CDK2 (% remaining) @ 0.1 μM” value was 40/40/40%, the “Enzyme degradation CDK2 (% remaining) @ 1 μM” value was 40/40/40% and the “Enzyme degradation CDK2 (% remaining) @ 10 μM” value is on record as 40/40/40%.

Regarding `Cc1cccc(C(=O)N[C@H]2C[C@@H](n3cnc4c(NC5CCN(CCOC6CCN(c7ccc8c(c7)C(=O)N([C@H]7CCC(=O)NC7=O)C8=O)CC6)CC5)ncnc43)C2)n1` [Compound 47, N-((1s,3s)-3-(6-((1-(2-((1-(2-(2,6-dioxopiperidin-3-yl)-1,3-dioxoisoindolin-5-yl)piperidin-4-yl)oxy)ethyl)piperidin-4-yl)amino)-9H-purin-9-yl)cyclobutyl)-6-methylpicolinamide], on CDK9, the “Enzyme degradation CDK9 (% remaining) @ 0.1 μM” value is listed as 40%, the “Enzyme degradation CDK9 (% remaining) @ 1 μM” value worked out at 0% and the “Enzyme degradation CDK9 (% remaining) @ 10 μM” value is 0%. Further, at CDK2, the “Enzyme degradation CDK2 (% remaining) @ 0.1 μM” value is 100/100/100%, the “Enzyme degradation CDK2 (% remaining) @ 1 μM” value was 100/100/100% and the “Enzyme degradation CDK2 (% remaining) @ 10 μM” value was 100/100/100%.

For `O=C1CC[C@H](N2C(=O)c3cccc(OCC(=O)N4CCC5(CC(N6CCN(c7ccc(Nc8ncnc9c8ncn9[C@H]8C[C@@H](NC(=O)Cc9ccccc9)C8)cc7)CC6)C5)C4)c3C2=O)C(=O)N1` (stereo partly drawn) [Compound 264, N-((1s,3s)-3-(6-((4-(4-(6-(2-((2-(2,6-dioxopiperidin-3-yl)-1,3-dioxoisoindolin-4-yl)oxy)acetyl)-6-azaspiro[3.4]octan-2-yl)piperazin-1-yl)phenyl)amino)-9H-purin-9-yl)cyclobutyl)-2-phenylacetamide], at CDK9, the “Enzyme degradation CDK9 (% remaining) @ 0.1 μM” value turned out to be 90%, the “Enzyme degradation CDK9 (% remaining) @ 1 μM” value is reported as 40% and the “Enzyme degradation CDK9 (% remaining) @ 10 μM” value came out at 0%. Further, on CDK2, the “Enzyme degradation CDK2 (% remaining) @ 0.1 μM” value turned out to be 50%, the “Enzyme degradation CDK2 (% remaining) @ 1 μM” value was 20% and the “Enzyme degradation CDK2 (% remaining) @ 10 μM” value was 10%.

`O=C1CCC(N2C(=O)c3cc(F)c(N4CCC(CN5CCC(CCNc6ncnc7c6ncn7[C@H]6C[C@@H](NC(=O)Cc7ccccc7)C6)CC5)CC4)cc3C2=O)C(=O)N1` (stereo partly drawn) [Compound 409, N-((1s,3s)-3-(6-((2-(1-((1-(2-(2,6-dioxopiperidin-3-yl)-6-fluoro-1,3-dioxoisoindolin-5-yl)piperidin-4-yl)methyl)piperidin-4-yl)ethyl)amino)-9H-purin-9-yl)cyclobutyl)-2-phenylacetamide]: at CDK9, the “Enzyme degradation CDK9 (% remaining) @ 0.1 μM” value was 70%, the “Enzyme degradation CDK9 (% remaining) @ 1 μM” value is given as 50% and the “Enzyme degradation CDK9 (% remaining) @ 10 μM” value was found to be 10%. Moreover, on CDK2, the “Enzyme degradation CDK2 (% remaining) @ 0.1 μM” value is reported as 70%, the “Enzyme degradation CDK2 (% remaining) @ 1 μM” value is listed as 40% and the “Enzyme degradation CDK2 (% remaining) @ 10 μM” value was 40%.

For `O=C1CC[C@H](N2C(=O)c3cc(F)c(N4CCC(CN5CCN(c6ccc(Nc7ncnc8c7ncn8C7CC(NC(=O)c8c(Cl)cccc8Cl)C7)cc6)CC5)CC4)cc3C2=O)C(=O)N1` (stereo partly drawn) [Compound 299, 2,6-dichloro-N-((1s,3s)-3-(6-((4-(4-((1-(2-(2,6-dioxopiperidin-3-yl)-6-fluoro-1,3-dioxoisoindolin-5-yl)piperidin-4-yl)methyl)piperazin-1-yl)phenyl)amino)-9H-purin-9-yl)cyclobutyl)benzamide], at CDK9, the “Enzyme degradation CDK9 (% remaining) @ 0.1 μM” value is recorded as 0/0/0%, the “Enzyme degradation CDK9 (% remaining) @ 1 μM” value was 0/0/0% and the “Enzyme degradation CDK9 (% remaining) @ 10 μM” value was 0/0/0%. Besides, at CDK2, the “Enzyme degradation CDK2 (% remaining) @ 0.1 μM” value was 30/30/30%, the “Enzyme degradation CDK2 (% remaining) @ 1 μM” value was 30/30/30% and the “Enzyme degradation CDK2 (% remaining) @ 10 μM” value is recorded as 30/30/30%.

Turning to `Cc1cccc(C(=O)NC2CC(n3cnc4c(Nc5ccc(N6CCN(C7CC8(CCN(c9ccc%10c(c9)C(=O)N([C@H]9CCC(=O)NC9=O)C%10=O)CC8)C7)CC6)cc5)ncnc43)C2)n1` (stereo partly drawn) [Compound 384, N-((1s,3s)-3-(6-((4-(4-(7-(2-(2,6-dioxopiperidin-3-yl)-1,3-dioxoisoindolin-5-yl)-7-azaspiro[3.5]nonan-2-yl)piperazin-1-yl)phenyl)amino)-9H-purin-9-yl)cyclobutyl)-6-methylpicolinamide], at CDK9, the “Enzyme degradation CDK9 (% remaining) @ 0.1 μM” value is given as 0/0/0%, the “Enzyme degradation CDK9 (% remaining) @ 1 μM” value was 0/0/0% and the “Enzyme degradation CDK9 (% remaining) @ 10 μM” value was 0/0/0%. Moreover, at CDK2, the “Enzyme degradation CDK2 (% remaining) @ 0.1 μM” value is 20/20/20%, the “Enzyme degradation CDK2 (% remaining) @ 1 μM” value is 20/20/20% and the “Enzyme degradation CDK2 (% remaining) @ 10 μM” value was 20/20/20%.

`O=C1CC[C@H](N2C(=O)c3ccc(N4CCC(CN5CCC(c6ccc(Nc7ncnc8c7ncn8[C@H]7C[C@@H](NC(=O)Cc8ccccc8)C7)cc6)CC5)CC4)cc3C2=O)C(=O)N1` [Compound 292, N-((1s,3s)-3-(6-((4-(1-((1-(2-(2,6-dioxopiperidin-3-yl)-1,3-dioxoisoindolin-5-yl)piperidin-4-yl)methyl)piperidin-4-yl)phenyl)amino)-9H-purin-9-yl)cyclobutyl)-2-phenylacetamide]: at CDK9, the “Enzyme degradation CDK9 (% remaining) @ 0.1 μM” value worked out at 10%, the “Enzyme degradation CDK9 (% remaining) @ 1 μM” value was determined as 0% and the “Enzyme degradation CDK9 (% remaining) @ 10 μM” value is reported as 0%. At CDK2, the “Enzyme degradation CDK2 (% remaining) @ 0.1 μM” value is reported as 10/10/10%, the “Enzyme degradation CDK2 (% remaining) @ 1 μM” value is 10/10/10% and the “Enzyme degradation CDK2 (% remaining) @ 10 μM” value is given as 10/10/10%.

With `O=C1CCC(N2C(=O)c3ccc(N4CCC(OCCN5CCN(c6ccc(Nc7ncnc8c7ncn8[C@H]7C[C@@H](NC(=O)Cc8ccccc8)C7)cc6)CC5)CC4)cc3C2=O)C(=O)N1` (stereo partly drawn) [Compound 252, N-((1s,3s)-3-(6-((4-(4-(2-((1-(2-(2,6-dioxopiperidin-3-yl)-1,3-dioxoisoindolin-5-yl)piperidin-4-yl)oxy)ethyl)piperazin-1-yl)phenyl)amino)-9H-purin-9-yl)cyclobutyl)-2-phenylacetamide], on CDK9, the “Enzyme degradation CDK9 (% remaining) @ 0.1 μM” value is on record as 60/60/60%, the “Enzyme degradation CDK9 (% remaining) @ 1 μM” value was 60/60/60% and the “Enzyme degradation CDK9 (% remaining) @ 10 μM” value is reported as 60/60/60%. At CDK2, the “Enzyme degradation CDK2 (% remaining) @ 0.1 μM” value turned out to be 30%, the “Enzyme degradation CDK2 (% remaining) @ 1 μM” value is on record as 30% and the “Enzyme degradation CDK2 (% remaining) @ 10 μM” value is on record as 50%.
